Experimental data from PubChem BioAssay (NCI).
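Test compounds were applied to cells in 96-well plates for 48 hours at 5 doses. TGI: concentration producing complete growth inhibition.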 Where a SMILES comes first, the peptide text is derived from it. The star is where a group is joined. Boc = CC(C)(C)OC(=O)*; OBn = c1ccc(CO*)cc1

Columns and labels:
Assay in all cases: NCI-60 cell line screen, 48 h
[1] = test system: MDA-N
[2] = test system: PC-3 prostate
[3] = test system: OVCAR-4 ovarian
[4] = test system: T-47D breast
[5] = test system: SK-MEL-28 melanoma
[6] = test system: MCF7 breast
[7] = test system: RPMI-8226 leukemia
[8] = test system: NCI/ADR-RES ovarian
[9] = test system: OVCAR-5 ovarian
[10] = test system: UACC-62 melanoma

SMILES	TGI [1]	TGI [2]	TGI [3]	TGI [4]	TGI [5]	TGI [6]	TGI [7]	TGI [8]	TGI [9]	TGI [10]
COC(=O)/C=C(/C(=O)OC)c1c(C)c(C)c2c(C)cc(C)cc(C)c1-2	4.83 µM	> 100 µM	> 100 µM	> 100 µM	> 100 µM	> 100 µM	> 100 µM	> 100 µM	> 100 µM	> 100 µM
O=c1c(C=Nc2ccc([N+](=O)[O-])cc2)c(O)n(-c2ccccc2)c(=O)n1-c1ccccc1	> 100 µM	> 100 µM	> 100 µM	> 100 µM		> 100 µM	> 100 µM	> 100 µM	> 100 µM	> 100 µM
NC(=S)Nc1[nH]c(=S)nc2c1SC1=N/C(=C\c3ccco3)C(=O)N12	> 100 µM	> 100 µM	> 100 µM	> 100 µM	> 100 µM	> 100 µM	> 90.6 µM	> 100 µM	> 100 µM	> 100 µM
Nc1ccccc1N/C=C\C(=O)C(Cl)(Cl)Cl	30.9 µM	> 100 µM	44.4 µM	43.1 µM	42.8 µM	30.7 µM	38 µM	> 100 µM	45.6 µM	35.9 µM
COc1cc(/C=C2\N=C(c3ccccc3)N(c3nc4c(OC)ccc(OC)c4s3)C2=O)cc(OC)c1OC	> 100 µM	> 100 µM	> 100 µM	> 100 µM	> 100 µM	> 100 µM	> 100 µM	> 100 µM	> 100 µM	> 100 µM
O=C(OCc1ccccc1)C1(N2CN(C3(C(=O)OCc4ccccc4)CCCC3)CN(C3(C(=O)OCc4ccccc4)CCCC3)C2)CCCC1	> 10 µM	> 10 µM	> 10 µM	> 10 µM	> 10 µM	> 10 µM	> 10 µM	> 10 µM	> 10 µM	> 10 µM
CCCCCCCCCCCCCCCCCCNc1ccn(C2OC(COP(=O)(O)OCC3OC(n4cc(C)c(=O)[nH]c4=O)CC3N=[N+]=[N-])C(O)C2O)c(=O)n1 (configuration not stated)	> 100 µM	22.5 µM	83.9 µM	> 100 µM	36.8 µM	> 100 µM	32.7 µM	50 µM	34.2 µM	36.4 µM
O=C(c1ccccc1)c1ccc2nc(-c3c(Cl)c(Cl)c(Cl)c(Cl)c3C(=O)N/N=C/c3ccccc3)[nH]c2c1	93.7 µM	> 100 µM	83.5 µM	74.3 µM	> 100 µM	41.9 µM	63 µM	80 µM	> 100 µM	
O=[N+]([O-])c1ccc(N=Nc2c(O)c(S(=O)(=O)O)cc3cc(S(=O)(=O)O)ccc23)cc1	> 100 µM	> 100 µM	> 100 µM	> 100 µM	> 100 µM	> 100 µM	> 100 µM	> 100 µM	> 100 µM	> 100 µM
CC(NC(=O)C(NC(=O)OC(C)(C)C)C(C)C)C(=O)N1CCCC1C(=O)NCC(=O)NC(C(=O)NCC(=O)OCc1ccccc1)C(C)C (configuration not stated) (Boc-VAPGVG-OBn; configuration not given here)	> 100 µM	> 100 µM	> 100 µM	> 100 µM	> 100 µM	> 100 µM	> 100 µM	> 100 µM	> 100 µM	> 100 µM
C(=C\c1ccccc1)/C=N/c1nc2cc3sc(/N=C/C=C/c4ccccc4)nc3cc2s1	> 100 µM	> 100 µM	> 100 µM	> 100 µM	> 100 µM	> 100 µM	> 100 µM	> 100 µM	> 100 µM	> 100 µM
CN(C)CCNC(=O)c1cccc2nc3c(nc12)-c1ccccc1C3=O	25.7 µM	35 µM	58.2 µM	37.4 µM	37.3 µM	24.3 µM	33.6 µM	39.3 µM	90.1 µM	60.4 µM
O=C1C=C(Br)c2c(Br)sc(Br)c21	> 52 µM	26.4 µM	34.4 µM	31.4 µM	> 56.2 µM	17.4 µM	> 100 µM	> 53.8 µM	41.3 µM	29.2 µM
O=c1cc(N2CCCC2)[nH]c(=O)n1-c1cccc(C(F)(F)F)c1	> 100 µM	> 100 µM	> 100 µM	> 100 µM		> 100 µM	> 100 µM	> 100 µM	> 100 µM	> 100 µM
O=C1COc2ccc([N+](=O)[O-])cc2C(=O)C1	> 10 µM	> 10 µM	> 10 µM	> 10 µM	> 10 µM	> 10 µM	> 10 µM	> 10 µM	> 10 µM	> 10 µM
CSc1c(C#N)c(=O)[nH]c2n[nH]c(C)c12	> 100 µM	> 100 µM	> 100 µM	> 100 µM	> 100 µM	> 100 µM	> 100 µM	> 100 µM	> 100 µM	> 100 µM
Cc1sc(/N=C/c2c[nH]c3ccccc23)c(C#N)c1C	> 100 µM	> 100 µM	> 100 µM	> 100 µM	> 100 µM	> 100 µM	> 100 µM	> 100 µM	> 100 µM	78.8 µM
